Measurements from patent publication US20230203043A1, “NOVEL IMIDAZOPYRAZINE DERIVATIVES” (Hoffmann-La Roche Inc., priority 2020, published 2023).
Where a name gives a salt, the structure may show the parent alone.

These molecules were tested on Acinetobacter baumannii ATCC17961 (assay: Antimicrobial susceptibility testing: 90% growth inhibitory concentration (IC90) determination in Iso-Sensitest broth, OD600 growth). Conditions: Acinetobacter baumannii, ATCC17961, 16 h, read-out: A. baumannii ATCC 17961 IC90 (uM), strain ATCC 17961, OD600 growth over 16 h.
Type: cell-based
How it was run: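 Growth inhibition is calculated during the logarithmic phase from OD600 readings taken every 20 minutes across 16 h at 35±2° C. Bacteria at ~5×10^(5) CFU/ml face twofold dilution series (e.g. 50 to 0.097 μM final).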

Compound | IC90 [µM]
Cc1cc(Nc2nccn3c(-c4cn(CC#N)nc4C(F)(F)F)cnc23)ccc1C(=O)NCC(=O)NC1CC(N)C1 (stereo not shown) [Example 749, N-[2-[(3-aminocyclobutyl)amino]-2-oxo-ethyl]-4-[[3-[1-(cyanomethyl)-3-(trifluoromethyl)pyrazol-4-yl]imidazo[1,2-a]pyrazin-8-yl]amino]-2-methyl-benzamide formate] | 0.619
Cc1cc(Nc2nccn3c(-c4cn(CC#N)nc4C(F)(F)F)cnc23)ccc1C(=O)NCC(=O)N[C@@H]1CCNC1 [Example 750, 4-[[3-[1-(cyanomethyl)-3-(trifluoromethyl)pyrazol-4-yl]imidazo[1,2-a]pyrazin-8-yl]amino]-2-methyl-N-[2-oxo-2-[[(3R)-pyrrolidin-3-yl]amino]ethyl]benzamide formate] | 0.625
Cc1cc(Nc2nccn3c(-c4cn(CC#N)nc4C(F)(F)F)cnc23)ccc1C(=O)NCC(=O)N1CC(N)C1 [Example 751, N-[2-(3-aminoazetidin-1-yl)-2-oxo-ethyl]-4-[[3-[1-(cyanomethyl)-3-(trifluoromethyl)pyrazol-4-yl]imidazo[1,2-a]pyrazin-8-yl]amino]-2-methyl-benzamide formate] | 0.627
Cc1cc(Nc2nccn3c(-c4cn(CC#N)nc4C(F)(F)F)cnc23)ccc1C(=O)NCC(=O)NCCN(C)C [Example 752, 4-[[3-[1-(cyanomethyl)-3-(trifluoromethyl)pyrazol-4-yl]imidazo[1,2-a]pyrazin-8-yl]amino]-N-[2-[2-(dimethylamino)ethylamino]-2-oxo-ethyl]-2-methyl-benzamide formate] | 0.636
CCc1cc(Nc2nccn3c(-c4c[nH]nc4C(F)(F)F)cnc23)ccc1C(=O)NCC(=O)N1CCC(N)CC1 [Example 756, N-[2-(4-amino-1-piperidyl)-2-oxo-ethyl]-2-ethyl-4-[[3-[3-(trifluoromethyl)-1H-pyrazol-4-yl]imidazo[1,2-a]pyrazin-8-yl]amino]benzamide formate] | 0.679
CCc1cc(Nc2nccn3c(-c4cn(CC#N)nc4C(F)(F)F)cnc23)ccc1C(=O)NCC(=O)N[C@@H]1CCNC1 [Example 757, 4-[[3-[1-(cyanomethyl)-3-(trifluoromethyl)pyrazol-4-yl]imidazo[1,2-a]pyrazin-8-yl]amino]-2-ethyl-N-[2-oxo-2-[[(3R)-pyrrolidin-3-yl]amino]ethyl]benzamide formate] | 0.689

Same assay, conditions: Acinetobacter baumannii, ATCC17961, 16 h, strain ATCC 17961, OD600 growth over 16 h, read-out: A. baumannii ATCC 17961 IC90

IC90 [µM] | Compound
0.608 | CCc1cc(Nc2nccn3c(-c4c[nH]nc4C(F)(F)F)cnc23)ccc1C(=O)NCCCNC(=O)[C@@H](C)NC(=O)C(F)(F)F [Example 748, (R)-2-ethyl-N-(3-(2-(2,2,2-trifluoroacetamido)propanamido)propyl)-4-((3-(3-(trifluoromethyl)-1H-pyrazol-4-yl)imidazo[1,2-a]pyrazin-8-yl)amino) benzamide]
0.659 | CCc1cc(Nc2nccn3c(-c4c[nH]nc4C(F)(F)F)cnc23)ccc1C(=O)NCC(=O)N1CCNCC1 [Example 753, 2-ethyl-N-(2-oxo-2-piperazin-1-yl-ethyl)-4-[[3-[3-(trifluoromethyl)-1H-pyrazol-4-yl]imidazo[1,2-a]pyrazin-8-yl]amino] benzamide formate]
0.671 | CCc1cc(Nc2nccn3c(-c4cn(CC#N)nc4C(F)(F)F)cnc23)ccc1C(=O)NCCCNC(=O)[C@@H]1C[C@@H](O)CN1 [Example 754, (2S,4R)-N-(3-(4-((3-(1-(cyanomethyl)-3-(trifluoromethyl)-1H-pyrazol-4-yl)imidazo[1,2-a]pyrazin-8-yl)amino)-2-ethylbenzamido)propyl)-4-hydroxypyrrolidine-2-carboxamide]
0.678 | C#CCn1cc(-c2cnc3c(Nc4ccc(C(=O)N5CCN(C(=O)C6(O)CCNCC6)CC5)c(CC)c4)nccn23)c(C(F)F)n1 [Example 755, (4-(4-((3-(3-(difluoromethyl)-1-(prop-2-yn-1-yl)-1H-pyrazol-4-yl)imidazo[1,2-a]pyrazin-8-yl)amino)-2-ethylbenzoyl)piperazin-1-yl)(4-hydroxypiperidin-4-yl) methanone]
